Experiments:
[1] = biological target: T1, Solute carrier organic anion transporter family member 1A2 (OATP1A2) (Homo sapiens, UniProt P46721); assay: TP_TRANSPORTER: inhibition of Taurocholate uptake (Taurochorate: 10 uM, GC: 200 uM) in Xenopus laevis oocytes; format: functional, cell-based, Oocyte; design: scale not given: the % may be the effect or the level left; settings: Xenopus laevis oocytes expressing OATP1A2 (SLCO1A2), probe taurocholate, read-out: Activity
T1 sequence (P46721 whole entry): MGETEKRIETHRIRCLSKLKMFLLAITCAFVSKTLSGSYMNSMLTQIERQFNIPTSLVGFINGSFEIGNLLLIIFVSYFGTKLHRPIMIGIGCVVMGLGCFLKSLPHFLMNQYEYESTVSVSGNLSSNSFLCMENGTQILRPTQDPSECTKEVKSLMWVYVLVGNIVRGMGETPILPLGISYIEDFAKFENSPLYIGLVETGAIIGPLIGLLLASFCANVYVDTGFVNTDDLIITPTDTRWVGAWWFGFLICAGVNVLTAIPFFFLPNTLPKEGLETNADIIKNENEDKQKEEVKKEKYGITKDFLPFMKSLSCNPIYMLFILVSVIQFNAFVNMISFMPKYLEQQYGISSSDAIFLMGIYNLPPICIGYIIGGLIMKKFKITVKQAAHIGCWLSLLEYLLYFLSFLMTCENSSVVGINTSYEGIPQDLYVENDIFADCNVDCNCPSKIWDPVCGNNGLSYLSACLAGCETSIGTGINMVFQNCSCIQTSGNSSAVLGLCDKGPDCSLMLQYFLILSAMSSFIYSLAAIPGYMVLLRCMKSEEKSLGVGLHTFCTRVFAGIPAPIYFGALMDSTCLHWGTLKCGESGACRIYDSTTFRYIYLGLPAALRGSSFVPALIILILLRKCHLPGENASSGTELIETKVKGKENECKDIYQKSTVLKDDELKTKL

[2] = biological target: T2, Solute carrier organic anion transporter family member 1A2 (Homo sapiens, UniProt P46721); assay: TP_TRANSPORTER: inhibition of BSP uptake (BSP: 10 uM, GC: 100 uM) in Xenopus laevis oocytes; format: functional, cell-based; design: scale not given: the % may be the effect or the level left; settings: oocyte
T2 sequence (P46721 whole entry): T1 sequence (P46721 whole entry)

[3] = biological target: T1, Solute carrier organic anion transporter family member 1A2 (OATP1A2); assay: TP_TRANSPORTER: inhibition of BSP uptake (BSP: 10 uM, UDCA: 100 uM) in Xenopus laevis oocytes; format: functional, cell-based, Oocyte; design: scale not given: the % may be the effect or the level left; settings: Xenopus laevis oocytes expressing OATP1A2 (SLCO1A2), probe BSP (sulfobromophthalein), read-out: Activity
[4] = biological target: T2, Solute carrier organic anion transporter family member 1A2; assay: TP_TRANSPORTER: inhibition of Taurocholate uptake (Taurochorate: 10 uM, UDCA: 200 uM) in Xenopus laevis oocytes; format: functional, cell-based; design: scale not given: the % may be the effect or the level left; settings: oocyte
[5] = biological target: T1, Solute carrier organic anion transporter family member 1A2 (OATP1A2); assay: TP_TRANSPORTER: inhibition of Taurocholate uptake (Taurochorate: 10 uM, ICG: 100 uM) in Xenopus laevis oocytes; format: functional, cell-based, Oocyte; design: scale not given: the % may be the effect or the level left; settings: Xenopus laevis oocytes expressing OATP1A2 (SLCO1A2), probe taurocholate, read-out: Activity
[6] = biological target: T1, Solute carrier organic anion transporter family member 1A2 (OATP1A2); assay: TP_TRANSPORTER: inhibition of BSP uptake (BSP: 10 uM, ICG: 100 uM) in Xenopus laevis oocytes; format: functional, cell-based, Oocyte; design: scale not given: the % may be the effect or the level left; settings: Xenopus laevis oocytes expressing OATP1A2 (SLCO1A2), probe BSP (sulfobromophthalein), read-out: Activity
[7] = biological target: T2, Solute carrier organic anion transporter family member 1A2; assay: TP_TRANSPORTER: inhibition of Taurocholate uptake (Taurochorate: 10 uM, CDCA: 200 uM) in Xenopus laevis oocytes; format: functional, cell-based; design: scale not given: the % may be the effect or the level left; settings: oocyte
[8] = biological target: T2, Solute carrier organic anion transporter family member 1A2; assay: TP_TRANSPORTER: inhibition of BSP uptake (BSP: 10 uM, CDCA: 200 uM) in Xenopus laevis oocytes; format: functional, cell-based; design: scale not given: the % may be the effect or the level left; settings: oocyte
[9] = biological target: T1, Solute carrier organic anion transporter family member 1A2 (OATP1A2); assay: TP_TRANSPORTER: uptake in Xenopus laevis oocytes; format: functional, cell-based, Oocyte; settings: Xenopus laevis oocytes expressing OATP1A2 (SLCO1A2)
[10] = biological target: T1, Solute carrier organic anion transporter family member 1A2 (OATP1A2); assay: TP_TRANSPORTER: inhibition of Taurocholate uptake (Taurochorate: 10 uM, TUDC: 100 uM) in Xenopus laevis oocytes; format: functional, cell-based, Oocyte; design: scale not given: the % may be the effect or the level left; settings: Xenopus laevis oocytes expressing OATP1A2 (SLCO1A2), probe taurocholate, read-out: Activity
[11] = biological target: T1, Solute carrier organic anion transporter family member 1A2 (OATP1A2); assay: TP_TRANSPORTER: inhibition of BSP uptake (BSP: 10 uM, TUDC: 100 uM) in Xenopus laevis oocytes; format: functional, cell-based, Oocyte; design: scale not given: the % may be the effect or the level left; settings: Xenopus laevis oocytes expressing OATP1A2 (SLCO1A2), probe BSP (sulfobromophthalein), read-out: Activity
[12] = biological target: T1, Solute carrier organic anion transporter family member 1A2 (OATP1A2); assay: TP_TRANSPORTER: inhibition of Taurocholate uptake (Taurochorate: 10 uM, TCDC: 100 uM) in Xenopus laevis oocytes; format: functional, cell-based, Oocyte; design: scale not given: the % may be the effect or the level left; settings: Xenopus laevis oocytes expressing OATP1A2 (SLCO1A2), probe taurocholate, read-out: Activity
[13] = biological target: T1, Solute carrier organic anion transporter family member 1A2 (OATP1A2); assay: TP_TRANSPORTER: inhibition of BSP uptake (BSP: 10 uM, TCDC: 100 uM) in Xenopus laevis oocytes; format: functional, cell-based, Oocyte; design: scale not given: the % may be the effect or the level left; settings: Xenopus laevis oocytes expressing OATP1A2 (SLCO1A2), probe BSP (sulfobromophthalein), read-out: Activity

**Q.** `C[C@H](CCC(=O)NCC(=O)O)[C@H]1CC[C@H]2[C@@H]3[C@H](O)C[C@@H]4C[C@H](O)CC[C@]4(C)[C@H]3C[C@H](O)[C@]12C` [GLYCOCHOLIC ACID] was tested. Which activity at 200 µM [1] did it give?
**A.** 24%

**Q.** And the Activity [2]?
**A.** 81%

**Q.** `C[C@H](CCC(=O)O)[C@H]1CC[C@H]2[C@@H]3[C@@H](O)C[C@@H]4C[C@H](O)CC[C@]4(C)[C@H]3CC[C@]12C` [URSODIOL] was tested. Which activity at 100 µM [3] did it give?
**A.** 57%

**Q.** What about the Activity [4] of the same molecule?
**A.** 14%

**Q.** Which results are given for `CC1(C)C(/C=C/C=C/C=C/C=C2\N(CCCCS(=O)(=O)O)c3ccc4ccccc4c3C2(C)C)=[N+](CCCCS(=O)(=O)[O-])c2ccc3ccccc3c21` [INDOCYANINE GREEN]?
**A.** activity at 100 µM [5]: 28%; activity at 100 µM [6]: 60%

**Q.** How did the Activity [7] turn out when `C[C@H](CCC(=O)O)[C@H]1CC[C@H]2[C@@H]3[C@H](O)C[C@@H]4C[C@H](O)CC[C@]4(C)[C@H]3CC[C@]12C` [CHENODIOL] was run?
**A.** 15%

**Q.** And the Activity [8]?
**A.** 34%

**Q.** With `O=C1OC(c2ccc(O)c(S(=O)(=O)O)c2)(c2ccc(O)c(S(=O)(=O)O)c2)c2c(Br)c(Br)c(Br)c(Br)c21` [SULFOBROMOPHTHALEIN SODIUM] as the molecule, how does the Km [9] read?
**A.** 20 µM

**Q.** What does the source list for `C[C@H](CCC(=O)NCCS(=O)(=O)O)[C@H]1CC[C@H]2[C@@H]3[C@@H](O)C[C@@H]4C[C@H](O)CC[C@]4(C)[C@H]3CC[C@]12C` [TAURURSODIOL]?
**A.** activity at 100 µM [10]: 9%; Km [9]: 19 µM; activity at 100 µM [11]: 9%

**Q.** Which activity at 100 µM [12] does the source give for `C[C@H](CCC(=O)NCCS(=O)(=O)O)[C@H]1CC[C@H]2[C@@H]3[C@H](O)C[C@@H]4C[C@H](O)CC[C@]4(C)[C@H]3CC[C@]12C` [TAUROCHENODEOXYCHOLATE] here?
**A.** 28%

**Q.** And the activity at 100 µM [13]?
**A.** 17%

Source: ChEMBL document CHEMBL2074197, “Molecular and functional characterization of an organic anion transporting polypeptide cloned from human liver” (Gastroenterology, 1995)
